# Data published in patent US9540363B2, “Solid oral formulations and crystalline forms of an inhibitor of apoptosis protein” (Novartis AG, priority 2009, dated 2017).
# Experiments:
# [1] = Water sorption and desorption (hygroscopicity) of crystalline forms; format: physicochemical; settings: for maximum water uptake: at 25° C. up to 95% RH; for hygroscopicity: crystalline solid form
# Description: The crystalline forms of compound of Formula (I), its salts and solvates can be characterized by a number of methods, including but not limited to, Powder X-Ray diffraction (PXRD), simulated powder X-ray patterns (Yin. S.; Scaringe, R. P.; DiMarco, J.; Galella, M. and Gougoutas, J. Z., American Pharmaceutical Review, 2003, 6, 2, 80), Differential scanning calorimetry (DSC) experiments, Solid-state C-13 NMR measurements, (W. L. Earl and D. L. VanderHart, J. Magn. Reson., 1982, 48, 35-54), Raman spectroscopy, Infra-red spectroscopy, Moisture sorption isotherms (VTI—variable temperature isotherms), and hot stage techniques.
# (§1) The crystalline forms HA, A, B, C, and D obtained in Examples 11-16 are analyzed by various standard methods: XPRD, DSC, TGA, Microscopy. Water sorption and desorption is also examined.
# [2] = Heating of the hemihydrate form (dehydration and form conversion); format: physicochemical; settings: upon heating
# Protocol: Form B can be obtained by heating the hemihydrate Form HA above 100° C. over a period of time to remove the water completely, by equilibrating the hemihydrate Form HA in heptane at 50° C., or by cooling crystallization from methyl isobutyl ketone.
# as §1
SMILES,maximum water uptake [1],hygroscopicity [1],heating temperature at which the form loses water and converts to Form B [2],water content ([1]; between 10% relative humidity (RH) and 70% RH),additional moisture taken up ([1]; from 70% RH to 95% RH)
"CN[C@@H](C)C(=O)N[C@H](C(=O)N1CCC[C@H]1c1nc(C(=O)c2ccc(F)cc2)cs1)C1CCCCC1 [Form B, (S)—N—((S)-1-cyclohexyl-2-{(S)-2-[4-(4-fluoro-benzoyl)-thiazol-2-yl]-pyrrolidin-1-yl}-2-oxo-ethyl)-2-methylamino-propionamide]",about 0.5%,slightly hygroscopic,–,–,–
"CN[C@@H](C)C(=O)N[C@H](C(=O)N1CCC[C@H]1c1nc(C(=O)c2ccc(F)cc2)cs1)C1CCCCC1 [Form D, (S)—N—((S)-1-cyclohexyl-2-{(S)-2-[4-(4-fluoro-benzoyl)-thiazol-2-yl]-pyrrolidin-1-yl}-2-oxo-ethyl)-2-methylamino-propionamide]",less than 0.5%,slightly hygroscopic,–,–,–

# Other lines, results leading:
maximum water uptake [1],hygroscopicity [1],heating temperature at which the form loses water and converts to Form B [2],water content ([1]; between 10% relative humidity (RH) and 70% RH),additional moisture taken up ([1]; from 70% RH to 95% RH),SMILES
about 0.8%,slightly hygroscopic,–,–,–,"CN[C@@H](C)C(=O)N[C@H](C(=O)N1CCC[C@H]1c1nc(C(=O)c2ccc(F)cc2)cs1)C1CCCCC1 [Form A, (S)—N—((S)-1-cyclohexyl-2-{(S)-2-[4-(4-fluoro-benzoyl)-thiazol-2-yl]-pyrrolidin-1-yl}-2-oxo-ethyl)-2-methylamino-propionamide]"
–,slightly hygroscopic,above 100 °C,~1.7%,~0.4%,"CN[C@@H](C)C(=O)N[C@H](C(=O)N1CCC[C@H]1c1nc(C(=O)c2ccc(F)cc2)cs1)C1CCCCC1 [Form HA, (S)—N—((S)-1-cyclohexyl-2-{(S)-2-[4-(4-fluoro-benzoyl)-thiazol-2-yl]-pyrrolidin-1-yl}-2-oxo-ethyl)-2-methylamino-propionamide]"
less than 0.2%,nonhygroscopic,–,–,–,"CN[C@@H](C)C(=O)N[C@H](C(=O)N1CCC[C@H]1c1nc(C(=O)c2ccc(F)cc2)cs1)C1CCCCC1 [Form C, (S)—N—((S)-1-cyclohexyl-2-{(S)-2-[4-(4-fluoro-benzoyl)-thiazol-2-yl]-pyrrolidin-1-yl}-2-oxo-ethyl)-2-methylamino-propionamide]"
